Measurements taken from PubChem BioAssay (NCI).
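96-well plates; 48 h exposure; 5 concentrations. Endpoints by linear interpolation between flanking doses. Not reached: highest tested concentration assigned. TGI: concentration producing complete growth inhibition.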

Key:
Experiment in all cases: DTP human tumour cell line panel, 48 h
786-0 renal = tested on: 786-0 renal
A498 renal = tested on: A498 renal
A549 NSCLC = tested on: A549 NSCLC
ACHN renal = tested on: ACHN renal
BT-549 breast = tested on: BT-549 breast
CAKI-1 renal = tested on: CAKI-1 renal
CCRF-CEM leukemia = tested on: CCRF-CEM leukemia
COLO 205 colon = tested on: COLO 205 colon
DU-145 prostate = tested on: DU-145 prostate
EKVX NSCLC = tested on: EKVX NSCLC
HCT-116 colon = tested on: HCT-116 colon
HCT-15 colon = tested on: HCT-15 colon
HL-60(TB) leukemia = tested on: HL-60(TB) leukemia
HOP-62 NSCLC = tested on: HOP-62 NSCLC
HOP-92 NSCLC = tested on: HOP-92 NSCLC
HS 578T breast = tested on: HS 578T breast
HT29 colon = tested on: HT29 colon
IGROV1 ovarian = tested on: IGROV1 ovarian
K-562 leukemia = tested on: K-562 leukemia
KM12 colon = tested on: KM12 colon
LOX IMVI melanoma = tested on: LOX IMVI melanoma
M14 melanoma = tested on: M14 melanoma
MALME-3M melanoma = tested on: MALME-3M melanoma
MCF7 breast = tested on: MCF7 breast
MDA-MB-231 breast = tested on: MDA-MB-231 breast
MDA-MB-435 = tested on: MDA-MB-435
MDA-N = tested on: MDA-N
MOLT-4 leukemia = tested on: MOLT-4 leukemia
NCI-H226 lung = tested on: NCI-H226 lung
NCI-H23 lung = tested on: NCI-H23 lung
NCI-H460 lung = tested on: NCI-H460 lung
NCI-H522 lung = tested on: NCI-H522 lung
NCI/ADR-RES ovarian = tested on: NCI/ADR-RES ovarian
OVCAR-3 ovarian = tested on: OVCAR-3 ovarian
OVCAR-4 ovarian = tested on: OVCAR-4 ovarian
OVCAR-5 ovarian = tested on: OVCAR-5 ovarian
OVCAR-8 ovarian = tested on: OVCAR-8 ovarian
PC-3 prostate = tested on: PC-3 prostate
RPMI-8226 leukemia = tested on: RPMI-8226 leukemia
RXF 393 renal = tested on: RXF 393 renal
SF-268 CNS = tested on: SF-268 CNS
SF-295 CNS = tested on: SF-295 CNS
SF-539 CNS = tested on: SF-539 CNS
SK-MEL-2 melanoma = tested on: SK-MEL-2 melanoma
SK-MEL-28 melanoma = tested on: SK-MEL-28 melanoma
SK-MEL-5 melanoma = tested on: SK-MEL-5 melanoma
SK-OV-3 ovarian = tested on: SK-OV-3 ovarian
SN12C renal = tested on: SN12C renal
SNB-19 CNS = tested on: SNB-19 CNS
SNB-75 CNS = tested on: SNB-75 CNS
SR leukemia = tested on: SR leukemia
SW-620 colon = tested on: SW-620 colon
T-47D breast = tested on: T-47D breast
TK-10 renal = tested on: TK-10 renal
U251 CNS = tested on: U251 CNS
UACC-257 melanoma = tested on: UACC-257 melanoma
UACC-62 melanoma = tested on: UACC-62 melanoma
UO-31 renal = tested on: UO-31 renal

Measured: TGI

O=C(O)C1C2CC3C(OC(=O)C31)C2Br (stereo not drawn)
> 88.9 µM: K-562 leukemia
> 23.4 µM: HL-60(TB) leukemia
26.2 µM: SR leukemia
> 58.1 µM: MOLT-4 leukemia
> 100 µM: all other assays above
